In patent publication US20200207835A1, “SRCP1-BASED THERAPY FOR DISEASES ASSOCIATED WITH PROTEIN AGGREGATION” (THE MEDICAL COLLEGE OF WISCONSIN, INC., priority 2017, published 2020):
Like-named read-outs stand apart in the source and are kept apart here. Residues, ends and D or L forms follow the SMILES beside them. No end group written: not given here. *: point of attachment. Cbz = O=C(OCc1ccccc1)*

Key:
^GFPHtt^ex1Q74 = experiment: GFPHttex1Q74 aggregation in transfected HEK293 cells (fluorescent/confocal microscopy, western blot, filter trap assay); format: cell-based, human; details: for ability of SRCP1 mutant to suppress GFPHttex1Q74 aggregation: HEK293, 48 hours post-transfection, western blot and fluorescent microscopy; for ability of SRCP1 point mutant to suppress GFPHttex1Q74 aggregation: HEK293, fluorescence microscopy
Protocol: Transfections were performed with Lipofectamine 2000 (Invitrogen by ThermoFisher Scientific) and adapted from the manufacturer's instructions. Briefly, cells were plated on either 12-well or 6-well plates and transfected at 50-70% confluency. For 12-well transfections, 0.833 μg of DNA per well was mixed with 50 μl of OptiMEM (Gibco by Life Technologies) media and incubated for 5 minutes at room temperature. Lipofectamine 2000 in a 2:1, μl of lipofectamine: μg DNA ratio was mixed with 50 μl of OptiMEM media and incubated for 5 minutes at room temperature. DNA and Lipofectamine were mixed and incubated for 15 minutes at room temperature. Fresh media was added to cells prior to the addition of DNA and lipofectamine. For 6-well transfections, the same protocol is followed except that 1.25 μg of DNA per well and 100 μl of OptiMEM for dilution was used. Media was changed 24 hours post-transfection and cells were harvested 48 hours post-transfection. Prior to harvesting, HEK293 cells were washed three times with ice-cold 1×PBS. Samples were then lysed with either 150 μl of ice-cold NETN (with protease inhibitor) or 1× Laemmli Buffer and sonicated twice for 5-8 seconds.
(§1) For proteasome inhibition, 30 hours post-transfection cells would be replenished with DMEM containing either DMSO or 10 μM MG132 (Sigma-Aldrich) for 18 hours. Prior to harvesting, HEK293 cells were washed three times with ice-cold 1×PBS and imaged by fluorescent microscopy with a 20× objective using the Evos FL Auto Imaging System. Cells were then lysed with either 150 μl of ice-cold NETN (with protease inhibitor) or 1× Laemmli Buffer and sonicated twice for 5-8 seconds.
as §1, with “autophagy” for “proteasome”, “24” for “30”, “and treated with” for “containing”, “5 mM 3-Methyladenine” for “10 μM MG132”, “an additional 24” for “18”
For HEK293s′, slides were prepared by placing coverslips in 6-well plates and incubating with poly-L-lysine hydrobromide (Sigma-Aldrich) for an hour at room temperature. Coverslips were rinsed with 1×PBS three times prior to plating HEK293 cells. HEK293 cells were then transfected and fixed by incubation in 4% paraformaldehyde for 20 minutes at room temperature. Coverslips were mounted with ProLong Gold Antifade reagent and imaged with a 20× objective using the Evos FL Auto Imaging System or with a 40× objective using the Leica TCS SP5 Confocal Microscope System. For confocal, Z-stack images were obtained at […] intervals at 1024×1024 pixel resolution and merged using Fiji.
(§2) Following sonication, lysates were subjected to BCA protein assay (ThermoFisher Scientific) and prepared for loading by the addition of 4× laemmli buffer and boiling for four minutes. Samples then loaded on SDS-polyacrylamide gels, ran at 175 V, and transferred onto an Immuno-blot PVDF membrane (Biorad) overnight at 30 V. Membranes were blocked in 5% milk in TBS with 0.1% Tween (TBST) and incubated in primary antibody overnight at 4° C. Following primary, membranes were washed for 10 minutes at room temperature three times with TBST and incubated in secondary for an hour at room temperature. Membranes were then washed for 10 minutes at room temperature three times with TBST and then incubated in buffer for enhanced chemiluminescence (50 mM Na2HPO4; 50 mM Na2CO3; 10 mM NaBO3.4H2O; 250 mM luminol; 90 mM coumaric acid).
For HEK293 lysates, BCA protein assay was used to determine protein concentration. […]

ubiquitinated species = experiment: Western blot for ubiquitin after proteasome inhibition in Dictyostelium; format: cell-based, Dictyostelium discoideum; details: increasing concentrations of MG132, 18 hours
Protocol: (§3) Following treatment, cells were imaged and/or harvested by spinning at 500 g at room temperature for 5 minutes. Cell pellets were washed three times with 1×PBS and lysed with ice-cold NETN (with protease inhibitor). Lysates were then sonicated twice for 10-15 seconds. To verify inhibition, samples were run on SDS-PAGE and analyzed by western blot for ubiquitin.
as §2

^GFPHtt^ex1Q103 = format: cell-based, Dictyostelium discoideum; details: Dictyostelium
Protocol: as §3, with “For proteasome inhibition, 5×10^6 cells were incubated with either DMSO or 100 μM MG132 (Sigma-Aldrich) for 18 hours. Following” for “Following”
as §3, with “For Hsp70 inhibition, 1×10^7 cells were incubated either with DMSO or 80 μM VER155008 (ApexBio) for 24 hours. Following” for “Following”, “treatments,” for “treatment,”, “ATG8.” for “ubiquitin.”
For Dictyostelium cells, 1×10^7 cells were washed three times with ice-cold starvation buffer and then imaged with a 20× objective using the Evos FL Auto Imaging System.

ATG8 [1] = details: 150 mM NH4Cl, 8 hours
Protocol: For autophagy inhibition, 1×10^7 cells were incubated either with vehicle or 150 μM NH4Cl (Sigma-Aldrich) for 8 hours. Following treatments, cells were imaged by fluorescent microscopy and plated on coverslips at a density of 2×10^6 cells per ml and allowing cells to adhere. Cells were then washed three times with 1×PBS and fixed with 100% ice-cold methanol at −20° C. for 10 minutes. Methanol was aspirated and cells were washed twice with 1×PBT (0.1% Triton X, 0.5% BSA in 1×PBS), incubated in blocking buffer (1% Triton X, 2% BSA in 1×PBT) for 30 minutes at room temperature, and put in primary Rb anti ATG8a (courtesy of Jason King, University of Sheffield) (1:5000) overnight at 4° C. Following primary cells were washed three times with 1×PBT and incubated in secondary goat anti rabbit (Jackson ImmunoResearch Laboratories; 711-166-152) for 2 hours at room temperature. Following secondary, cells were washed an additional three times with 1×PBT and mounted on slides with ProLong Gold Antifade reagent (Invitrogen by ThermoFisher Scientific). Slides were imaged with a Nikon eclipse 90i confocal microscope.

ATG8 [2] = experiment: Western blot for ATG8 after Hsp70 inhibition in Dictyostelium; format: cell-based, Dictyostelium discoideum; details: 80 μM Ver155008, 24 hours
Protocol: as §2, with “For Hsp70 inhibition, 1×10^7 cells were incubated either with DMSO or 80 μM VER155008 (ApexBio) for 24 hours. Following treatments, cells were imaged and/or harvested by spinning at 500 g at room temperature for 5 minutes. Cell pellets were washed three times with 1×PBS and lysed with ice-cold NETN (with protease inhibitor). Lysates were then sonicated twice for 10-15 seconds. To verify inhibition, samples were run on SDS-PAGE and analyzed by western blot for ATG8. Following sonication,” for “Following sonication,”

Htt^Q46 = molecular target: T1, Htt^Q46 (Homo sapiens, UniProt P42858, INS38QQQQQQQQQQQQQQQQQQQQQQQQQ); experiment: Thioflavin-T in vitro HttQ46 aggregation assay; format: biochemical; details: 3:1 peptide to HttQ46
T1 construct: Huntingtin exon-1 with 46 glutamines (Htt^Q46) in pET-32 was obtained from Addgene; pET-32 fusion tag (N, cleaved yes); host or cells: E. coli BL21
Protocol: Huntingtin exon-1 with 46 glutamines (Htt^Q46) in pET-32 was obtained from Addgene. Htt^Q46 was grown in BL21 cells at 37° C. to an optical density of 0.6 and induced with IPTG at 1 mM overnight at 16° C. After induction cells were spun down at 7,000 rpm for 5 minutes and resuspended in resuspension buffer (15 mM Tris-HCl buffer, pH 8.0). For lysis, lysozyme was added and cells were incubated at 4° C. for 45 minutes. To obtain soluble fraction, lysates were spun down at 12,000 rpm for 10 minutes, after which supernatant was added to 3 ml of Ni-beads (GoldBio) per 100 ml of lysate and tumbled for 4 hours at 4° C. Beads were then washed three times with resuspension buffer and then washed three more times with wash buffer (50 mM Tris-HCl pH 8.0, 150 mM NaCl, 1 mM PMSF, 1 mM EDTA). Protein was then eluted off beads by tumbling overnight at 4° C. in 25 mL of wash buffer with 250 mM imidazole.
Aggregation assays were performed as previously described in Kakkar, V. et al. Briefly, 15 μM Htt^46Q was mixed with 90 μM SRCP1 peptide (GenScript) (1:6, 1:3, 1:1.5) and 10 μM Thioflavin-T (Sigma-Aldrich). All samples were prepared on ice in buffer containing 20 mM Tris-HCl pH 8.0, 50 mM NaCl, 2 mM CaCl2). […] Fluorescence was measured with the excitation at 440 nm and emission at 480 nm, every 5 minutes using a Tecan Plate reader.

[3] = Solubility of SRCP1 peptide in vitro; format: physicochemical; details: data not shown
[4] = HEK293, 5 mM 3-MA for 24 hours, without SRCP1
[5] = HEK293, 10 μM MG132 for 18 hours, absence of RFPSRCP1

T1 sequence (P42858 with tags, fused parts or gaps with the stated changes): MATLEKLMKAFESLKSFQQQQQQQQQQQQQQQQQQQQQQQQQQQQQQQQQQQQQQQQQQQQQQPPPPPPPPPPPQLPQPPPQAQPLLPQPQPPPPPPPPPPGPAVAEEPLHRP

Cn1cnc(N)c2ncnc1-2 [3-MA, 3-Methyladenine, reference compound]
aggregated GFPHttex1Q74 (^GFPHtt^ex1Q74; [4]): significant increase in soluble and aggregated
soluble GFPHttex1Q74 (^GFPHtt^ex1Q74; [4]): significant increase in soluble and aggregated

CC(C)C[C@@H](C=O)NC(=O)[C@H](CC(C)C)NC(=O)[C@H](CC(C)C)NC(=O)OCc1ccccc1 [MG132, reference compound] (Cbz-Leu-Leu-Leu-aldehyde)
accumulation of ubiquitinated species (ubiquitinated species): leads to an accumulation of ubiquitinated species
accumulation of aggregated GFPHttex1Q103 (^GFPHtt^ex1Q103; 100 μM MG132, 18 hours): does not result in an accumulation of aggregated
insoluble GFPHttex1Q74 (^GFPHtt^ex1Q74; [5]): increased in both the insoluble and soluble fraction
soluble GFPHttex1Q74 (^GFPHtt^ex1Q74; [5]): increased in both the insoluble and soluble fraction

Cl.N [NH4Cl]
accumulation of aggregated GFPHttex1Q103 (^GFPHtt^ex1Q103; 150 mM NH4Cl, 8 hours): does not lead to accumulation of aggregated
ATG8 puncta (ATG8 [1]): leads to an accumulation of large ATG8 puncta

N#Cc1ccc(COC[C@H]2O[C@@H](n3c(NCc4ccc(Cl)c(Cl)c4)nc4c(N)ncnc43)[C@H](O)[C@@H]2O)cc1 [VER-155008]
accumulation of aggregated GFPHttex1Q103 (^GFPHtt^ex1Q103; 80 μM VER-155008, 24 hours): does not lead to accumulation of aggregated
ATG8 protein levels (ATG8 [2]): leads to an increase of ATG8 proteins levels

LIWGVYGFIR [SEQ ID NO:5, peptide of SRCP1 amino acids 61-70]
HttQ46 aggregation in vitro, individual domain peptides (Htt^Q46): sufficient to suppress Htt^Q46 aggregation in vitro

LIWGVYGFIRGGVGLVKWRG [SEQ ID NO:9]
solubility in vitro [3]: remained soluble in vitro

VI-A: SRCP1 61-70 peptide with amino acids V65 and I69 mutated to alanine (LIWGAYGFAR)
HttQ46 aggregation in vitro, individual domain peptides (Htt^Q46): loss in activity

B1: ^RFPSRCP1^ST1: SRCP1 with all N-terminal serine and threonine residues mutated to alanine (protein)
chain: MAILAAFAAFANPPKLNKAAFAAAAGAALAMGANAFAWGGGWGGFGGPKGGSFNVDIAGNLIWGVYGFIRGGVGLVKWRGLQKGCKQP
modifications: left off: large carriers
notes: SRCP1 with all N-terminal serine and threonine residues mutated to alanine
ability of SRCP1 mutant to suppress GFPHttex1Q74 aggregation (^GFPHtt^ex1Q74): did not disrupt SRCP1's ability to suppress polyQ aggregation

B2: ^RFPSRCP1^61-70A: SRCP1 with amino acids 61-70 mutated to alanine (protein)
chain: MTILSTFTSFSNPPKLNKSSFSSSTGSSLSMGSNSFAWGGGWGGFGGPKGGSFNVDIAGNAAAAAAAAAAGGVGLVKWRGLQKGCKQP
modifications: left off: large carriers
notes: SRCP1 with amino acids 61-70 mutated to alanine
ability of SRCP1 mutant to suppress GFPHttex1Q74 aggregation (^GFPHtt^ex1Q74): lost the ability to suppress

B3: ^RFPSRCP1^I69A: SRCP1 point mutant, I69 mutated to alanine (protein)
chain: MTILSTFTSFSNPPKLNKSSFSSSTGSSLSMGSNSFAWGGGWGGFGGPKGGSFNVDIAGNLIWGVYGFARGGVGLVKWRGLQKGCKQP
modifications: left off: large carriers
notes: SRCP1 point mutant, I69 mutated to alanine
ability of SRCP1 point mutant to suppress GFPHttex1Q74 aggregation (^GFPHtt^ex1Q74): resulted in a decrease in SRCP1 function

B4: ^RFPSRCP1^V65A: SRCP1 point mutant, V65 mutated to alanine (protein)
chain: MTILSTFTSFSNPPKLNKSSFSSSTGSSLSMGSNSFAWGGGWGGFGGPKGGSFNVDIAGNLIWGAYGFIRGGVGLVKWRGLQKGCKQP
modifications: left off: large carriers
notes: SRCP1 point mutant, V65 mutated to alanine
ability of SRCP1 point mutant to suppress GFPHttex1Q74 aggregation (^GFPHtt^ex1Q74): resulted in a decrease in SRCP1 function

B5: ^RFPSRCP1^71-80A: SRCP1 with amino acids 71-80 mutated to alanine (protein)
chain: MTILSTFTSFSNPPKLNKSSFSSSTGSSLSMGSNSFAWGGGWGGFGGPKGGSFNVDIAGNLIWGVYGFIRAAAAAAAAAALQKGCKQP
modifications: left off: large carriers
notes: SRCP1 with amino acids 71-80 mutated to alanine
ability of SRCP1 mutant to suppress GFPHttex1Q74 aggregation (^GFPHtt^ex1Q74): retained full activity
